Read-outs that look alike come from different tables or passages of the source.
Tests used:
CDK4/Cyclin D1 = CDK4/Cyclin D1 (Homo sapiens (Human), UniProt P11802); assay: CDK4/CyclinD1 enzymatic activity assay (TR-FRET); format: biochemical; details: CDK4/CyclinD1 1 nM, ATP 2 mM, read-out: CDK4_D1 IC50
Method in brief: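 Insect-cell CDK4/Cyclin D1 (1 nM) with ULight-4E-BP1 (100 nM) and 2 mM ATP in HEPES pH 7.4 buffer, preincubated 20 min with compound (9-dose, 3-fold dilutions); 10 mM MgCl2 started the reaction, run 60 min at 37 °C. EDTA/Eu-anti-phospho-4E-BP1 TR-FRET detection; IC50 from 4-parameter Hill fit.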

[1] = system: MCF7 adenocarcinoma cell line; assay: Cell proliferation studies in MCF7 cells (ATP-Lite); format: cell-based; details: 10 days incubation, cell viability by ATP-Lite luminescence, read-out: PROLIFERATION_CTG_MCF7 IC50
Method in brief: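 MCF7 cells, seeded at 100 or 200 cells/well, were exposed for 10 days at 37 °C to a 9-point, 3-fold dilution series in quadruplicate, with media exchange and re-dosing on day 5. Viability was read by ATP-Lite luminescence, normalized to background and DMSO, and fitted for IC50.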

[2] = Brain-to-plasma ratio determination in Sprague-Dawley rats; format: in vivo; details: male Sprague-Dawley rats, four hours after a single oral dose (3, 4, 5, or 10 mg/kg); for Kp at 4 h: rat
Protocol: Example B: Brain-to-Plasma Ratio Determination in Sprague-Dawley Rats
The brain-to-plasma ratio (Kp) was determined in male Sprague-Dawley rats (7-9 weeks old) four hours after a single oral dose. Rats were acclimated and given free access to standard rodent chow and water throughout the entire study. Test articles were formulated as a solution at 0.3, 0.4, 0.5, or 1.0 mg/mL in a vehicle comprised of 10:15:75 (v:v:v) dimethylacetamide (DMA):Solutol HS15:water and delivered orally at a rate of 10 mL/kg to three rats to achieve final doses of 3, 4, 5, or 10 mg/kg, respectively. At 4 hours post-dose, blood samples were collected via jugular vein cannula into tubes containing K2EDTA as the anticoagulant and stored on ice. Blood samples were then centrifuged at 4° C. at 6000 rpm for 5 minutes, and the resulting plasma was placed into tubes and stored frozen at −80° C. until analysis. Whole brain samples were also collected at 4 hours post-dose. The weight of each brain was measured and recorded, and samples were immediately stored on dry ice. Brain samples were then transferred to storage at −80° C. until analysis.
Prior to analysis, brain samples were combined with water (4 mL/1 gram of brain) and homogenized. Prior to injection, plasma and brain homogenate samples and standards were prepared for analysis by precipitation with acetonitrile or 1:1 (v:v) methanol:acetonitrile. Samples were then thoroughly mixed, centrifuged at 4000 rpm for 15 minutes, and the resulting supernatant was transferred for analysis. Test article concentrations in plasma and brain homogenate were then determined by LC-MS/MS and quantified against calibration standards prepared to known concentrations in matched blank (analyte-free) biological matrix. The Kp was then determined by dividing the dilution-corrected brain concentration by the plasma concentration from each rat. A brain density of 1 gram/mL was assumed for all calculations.

CDK6/Cyclin D1 = CDK6/Cyclin D1 (Homo sapiens (Human), UniProt Q00534); assay: CDK6/CyclinD1 enzymatic activity assay (TR-FRET); format: biochemical; details: CDK6/Cyclin D1 1 nM, ATP 250 μM, read-out: CDK6_D1 IC50
Method in brief: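 Insect-cell-expressed CDK6/Cyclin D1 (1 nM) phosphorylated ULight-4E-BP1 (100 nM) with 250 μM ATP in HEPES pH 7.4 buffer. After 20 min compound preincubation, reactions were started with 10 mM MgCl2 and run 60 min at 37 °C. EDTA-quenched samples were read by TR-FRET with Eu-anti-P-4E-BP1; IC50 from 9-dose 4-parameter fits.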

Chain of CDK6/Cyclin D1 (Q00534 whole entry): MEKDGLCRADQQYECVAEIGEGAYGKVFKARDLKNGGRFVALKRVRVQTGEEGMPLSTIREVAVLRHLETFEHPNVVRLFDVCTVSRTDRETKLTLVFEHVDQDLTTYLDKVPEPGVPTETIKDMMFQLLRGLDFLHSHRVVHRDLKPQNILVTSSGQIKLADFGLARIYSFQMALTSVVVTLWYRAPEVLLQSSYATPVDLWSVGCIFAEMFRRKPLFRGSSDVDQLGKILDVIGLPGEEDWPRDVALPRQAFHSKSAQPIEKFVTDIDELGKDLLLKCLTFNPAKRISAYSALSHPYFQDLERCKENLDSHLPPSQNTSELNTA
Chain of CDK6/Cyclin D1 (P24385 whole entry partner): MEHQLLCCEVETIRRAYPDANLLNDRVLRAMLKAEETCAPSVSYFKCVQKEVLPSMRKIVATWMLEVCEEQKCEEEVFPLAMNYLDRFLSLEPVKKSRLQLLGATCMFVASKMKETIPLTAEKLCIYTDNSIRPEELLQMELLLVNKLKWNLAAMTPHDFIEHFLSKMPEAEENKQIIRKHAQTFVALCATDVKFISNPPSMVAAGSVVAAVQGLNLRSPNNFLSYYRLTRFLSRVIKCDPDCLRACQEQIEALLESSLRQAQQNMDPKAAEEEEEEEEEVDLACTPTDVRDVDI
Chain of CDK4/Cyclin D1 (P11802 whole entry): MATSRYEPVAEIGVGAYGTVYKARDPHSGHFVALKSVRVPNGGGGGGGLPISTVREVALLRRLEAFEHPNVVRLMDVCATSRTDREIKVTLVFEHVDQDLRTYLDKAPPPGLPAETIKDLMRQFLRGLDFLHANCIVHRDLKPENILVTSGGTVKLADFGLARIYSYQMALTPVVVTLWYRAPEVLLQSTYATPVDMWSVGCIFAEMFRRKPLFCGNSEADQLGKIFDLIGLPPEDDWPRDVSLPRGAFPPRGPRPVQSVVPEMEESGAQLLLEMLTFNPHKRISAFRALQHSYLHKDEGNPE
Chain of CDK4/Cyclin D1 (P24385 whole entry partner): as the sequence (P24385 whole entry partner) above

IC50 (CDK4/Cyclin D1) [nM]	IC50 ([1]; Homo sapiens, 240 h) [nM]	Kp at 4 h [2]	IC50 (CDK6/Cyclin D1) [nM]	IC50 [1] [nM]	Kp [2]	Compound
≤ 20	20 to 200	< 1	≤ 20	–	–	Cc1c(-c2nc(Nc3ccc(C4CCN(C(C)C)C4)cn3)ncc2F)sc2c1C(=O)N(C)C21CC1 (stereo not drawn) [Example 16, 2′-(5-Fluoro-2-((5-(1-isopropylpyrrolidin-3-yl)pyridin-2-yl)amino)pyrimidin-4-yl)-3′,5′-dimethylspiro[cyclopropane-1,6′-thieno[2,3-c]pyrrol]-4′(5′H)-one]
≤ 20	≤ 20	≥ 3	≤ 20	–	–	CN1CCC(c2ccc(Nc3ncc(F)c(-c4cc5c(s4)C4(CCCC4)N(C)C5=O)n3)nc2)CC1 [Example 20, 2′-(5-Fluoro-2-((5-(1-methylpiperidin-4-yl)pyridin-2-yl)amino)pyrimidin-4-yl)-5′-methylspiro[cyclopentane-1,6′-thieno[2,3-c]pyrrol]-4′(5′H)-one]
≤ 20	–	–	≤ 20	20 to 200	++ (a “++” denotes 1.0 ≤ Kp < 3.0)	CCN1CC2(C1)CN(c1ccc(Nc3ncc(F)c(-c4cc5c(s4)C4(CCCC4)N(C)C5=O)n3)nc1)C2 [Example 24]
≤ 20	≤ 20	1 to 3	≤ 20	–	–	Cc1c(-c2nc(Nc3ccc(C4CCN(C)CC4)cn3)ncc2F)sc2c1C(=O)N(C)C21CCCC1 [Example 25, 2′-(5-Fluoro-2-((5-(1-methylpiperidin-4-yl)pyridin-2-yl)amino)pyrimidin-4-yl)-3′,5′-dimethylspiro[cyclopentane-1,6′-thieno[2,3-c]pyrrol]-4′(5′H)-one]
≤ 20	20 to 200	≥ 3	≤ 20	–	–	Cc1c(-c2nc(Nc3ccc(C4CCN(C)CC4)cn3)ncc2F)sc2c1C(=O)N(C)CC21CC1 [Example 28]
≤ 20	20 to 200	1 to 3	20 to 200	–	–	CN1CCC(c2ccc(Nc3ncc(F)c(-c4cc5c(s4)C4(CC4)CN(C)C5=O)n3)nc2)CC1 [Example 29, 2′-(5-Fluoro-2-((5-(1-methyl-piperidin-4-yl)pyridin-2-yl)amino)pyrimidin-4-yl)-5′-methyl-5′,6′-dihydro-4′H-spiro[cyclo-propane-1,7′-thieno[3,2-c]pyridin]-4′-one]
≤ 20	≤ 20	1 to 3	≤ 20	–	–	Cc1c(-c2nc(Nc3ccc(N4CC5(CCN(C)C5)C4)cn3)ncc2F)sc2c1C(=O)N(C)CC21CC1 [Example 35]
≤ 20	20 to 200	1 to 3	≤ 20	–	–	CCN1C[C@H]2CN(c3ccc(Nc4ncc(F)c(-c5sc6c(c5C)C(=O)N(C)CC65CC5)n4)nc3)C[C@@H]2C1 [Example 39, 2′-(2-((5-((3aS,6aS)-5-Ethylhexahydropyrrolo[3,4-c]pyrrol-2(1H)-yl)pyridin-2-yl)amino)-5-fluoropyrimidin-4-yl)-3′,5′-dimethyl-5′,6′-dihydro-4′H-spiro[cyclopropane-1,7′-thieno[3,2-c]pyridin]-4′-one]
≤ 20	≤ 20	< 1	≤ 20	–	–	CCN1CC2(C1)CN(c1ccc(Nc3ncc(C)c(-c4cc5c(s4)C4(CC4)CN(C)C5=O)n3)nc1)C2 [Example 41, 2-[2-[[5-(6-Ethyl-2,6-diazaspiro[3.3]heptan-2-yl)pyridin-2-yl]amino]-5-methylpyrimidin-4-yl]-5-methylspiro[6H-thieno[3,2-c]pyridine-7,1′-cyclopropane]-4-one]
≤ 20	20 to 200	1 to 3	20 to 200	–	–	CN1CCC(c2ccc(Nc3ncc(F)c(-c4cc5c(s4)C4(CCC4)CN(C)C5=O)n3)nc2)CC1 [Example 47, 2′-(5-Fluoro-2-((5-(1-methyl-piperidin-4-yl)pyridin-2-yl)amino)pyrimidin-4-yl)-5′-methyl-5′,6′-dihydro-4′H-spiro[cyclobutane-1,7′-thieno[3,2-c]pyridin]-4′-one]
≤ 20	20 to 200	≥ 3	≤ 20	–	–	Cc1c(-c2nc(Nc3ccc(C4CCN(C)CC4)cn3)ncc2F)sc2c1C(=O)N(C)CC21CCC1 [Example 48, 2′-(5-Fluoro-2-((5-(1-methyl-piperidin-4-yl)pyridin-2-yl)amino)pyrimidin-4-yl)-3′,5′-dimethyl-5′,6′-dihydro-4′H-spiro[cyclobutane-1,7′-thieno[3,2-c]pyridin]-4′-one]
≤ 20	20 to 200	≥ 3	≤ 20	–	–	CN1CCN(c2ccc(Nc3ncc(F)c(-c4cc5c(s4)C4(CCC4)CN(C)C5=O)n3)nc2)CC1 [Example 50, 2′-(5-Fluoro-2-((5-(4-methyl-piperazin-1-yl)pyridin-2-yl)amino)pyrimidin-4-yl)-5′-methyl-5′,6′-dihydro-4′H-spiro[cyclobutane-1,7′-thieno[3,2-c]pyridin]-4′-one]
≤ 20	20 to 200	< 1	≤ 20	–	–	Cc1c(-c2nc(Nc3ccc(N4CCC5(CCN(C)C5)C4)cn3)ncc2F)sc2c1C(=O)N(C)CC21CCC1 (stereo not drawn) [Example 55, 2′-(5-Fluoro-2-((5-(7-methyl-2,7-diazaspiro[4.4]nonan-2-yl)pyridin-2-yl)amino)pyrimidin-4-yl)-3′,5′-dimethyl-5′,6′-dihydro-4′H-spiro[cyclobutane-1,7′-thieno[3,2-c]pyridin]-4′-one]
≤ 20	≤ 20	1 to 3	≤ 20	–	–	Cc1cnc(Nc2ccc(C3CCN(C)CC3)cn2)nc1-c1cc2c(s1)C1(CCC1)CN(C)C2=O [Example 59, 5-Methyl-2-[5-methyl-2-[[5-(1-methylpiperidin-4-yl)pyridin-2-yl]amino]pyrimidin-4-yl]spiro[6H-thieno[3,2-c]pyridine-7,1′-cyclobutane]-4-one]
≤ 20	20 to 200	≥ 3	≤ 20	–	–	Cc1c(-c2nc(Nc3ccc(C4CCN(C)CC4)cn3)ncc2F)sc2c1C(=O)N(C)CC21CCCC1 [Example 63, 2′-(5-Fluoro-2-((5-(1-methyl-piperidin-4-yl)pyridin-2-yl)amino)pyrimidin-4-yl)-3′,5′-dimethyl-5′,6′-dihydro-4′H-spiro[cyclopentane-1,7′-thieno[3,2-c]pyridin]-4′-one]
≤ 20	20 to 200	1 to 3	20 to 200	–	–	CCN1CC2(C1)CN(c1ccc(Nc3ncc(F)c(-c4ccc5c(c4)C4(CCCC4)CN(C)C5=O)n3)nc1)C2 [Example 66, 6′-(2-((5-(6-Ethyl-2,6-diazaspiro[3.3]heptan-2-yl)pyridin-2-yl)amino)-5-fluoropyrimidin-4-yl)-2′-methyl-2′,3′-dihydro-1′H-spiro[cyclopentane-1,4′-isoquinolin]-1′-one]
≤ 20	20 to 200	≥ 3	20 to 200	–	–	CN1CCC(c2ccc(Nc3ncc(F)c(-c4ccc5c(c4)C4(CCCC4)CN(C)C5=O)n3)nc2)CC1 [Example 67, 6′-(5-Fluoro-2-((5-(1-methyl-piperidin-4-yl)pyridin-2-yl)amino)pyrimidin-4-yl)-2′-methyl-2′,3′-dihydro-1′H-spiro[cyclopentane-1,4′-isoquinolin]-1′-one]
≤ 20	20 to 200	1 to 3	≤ 20	–	–	CCN1CCC(c2ccc(Nc3ncc(F)c(-c4sc5c(c4C)C(=O)N(C)C54CC4)n3)nc2)C1 (stereo not drawn) [Example 71, 2′-[2-[[5-(1-Ethylpyrrolidin-3-yl)pyridin-2-yl]amino]-5-fluoropyrimidin-4-yl]-3′,5′-dimethylspiro[cyclopropane-1,6′-thieno[2,3-c]pyrrole]-4′-one]
